{"source": "patent US20130017265A1", "about": "“PARTICLES FOR MULTIPLE AGENT DELIVERY” (MASSACHUSETTS INSTITUTE OF TECHNOLOGY, priority 2009, published 2013)", "key": {"LNCaP cells": {"test_system": "LNCaP cells", "experiment": "MTT cytotoxicity assay, LNCaP cells", "type": "cell-based, human", "conditions": "for IC50: MTT, 12 hours treatment, further 48 hours, [Pt] = 25 * [Doce]", "protocol": "(§1) The ability of the targeted drug releasing construct nanoparticles to promote cell death was determined using the MTT assay using human prostate cancer LNCaP and PC3 cells and compared against the standard compounds cisplatin and the Pt(IV)-monosuccinate prodrug. Human prostate cancer LNCaP and PC3 cells were obtained from the ATCC. […] The cells were incubated at 37° C. in 5% CO2 in RPMI growth medium supplemented with 10% fetal bovine serum and 1% penicillin/streptomycin. The cells were passaged every 3 to 4 days and restarted from the frozen stock upon reaching passage number 20. Cytotoxic activity of the constructs was evaluated using the MTT assay. Solutions of the different constructs were freshly prepared in sterile PBS before use. All platinum constructs were quantified by atomic absorption spectroscopy. LNCaP and PC3 cells were seeded on a 96-well plate in 100 μL RPMI media and incubated for 24 hours.\n(§2) The cells were then treated with different constructs at varying concentrations and incubated for 12 hours at 37° C. Fresh medium was replaced after 12 hours incubation with nanoparticles, and the cells were incubated for a further 48 hours. The cells were then treated with 20 μL of 3-(4,5-dimethylthiazol-2-yl)-2,5-diphenyltetrazolium bromide (MTT) (5 mg/mL in PBS) and incubated for 5 hours. The medium was removed, the cells were lysed by adding 100 μL of DMSO, and the absorbance of the purple formazan was recorded at 550 nm using a microplate spectrophotometer. Each sample was assayed in triplicate in three independent experiments for each cell line."}, "PC3 cells": {"test_system": "PC3 cells", "experiment": "MTT cytotoxicity assay, PC3 cells", "type": "cell-based, human", "conditions": "for IC50: MTT, 12 hours treatment, further 48 hours, [Pt] = 25 * [Doce]", "protocol": "as §1, §2"}}}
{"compound": "N.N.[Cl][Pt][Cl]", "note": "[Cisplatin]", "values": [{"measurement": "IC50", "setting": "LNCaP cells", "value": "> 5", "unit": "µM"}, {"measurement": "IC50", "setting": "PC3 cells", "value": 9.9, "unit": "µM"}]}
{"compound": "c,c,t[Pt(NH3)Cl2(OH)(succinate)] [Pt-Monosuccinate]", "values": [{"measurement": "effect on viability", "setting": "LNCaP cells; LNCaP cells, compared with cisplatin, PolyPt-NP, PolyPt-NP-Apt", "value": "least effect on viability"}, {"measurement": "IC50", "setting": "LNCaP cells", "value": 106, "unit": "µM"}, {"measurement": "IC50", "setting": "PC3 cells", "value": 36, "unit": "µM"}, {"measurement": "effect on viability", "setting": "PC3 cells; PC3 cells, compared with cisplatin, PolyPt-NP, PolyPt-NP-Apt", "value": "least effect on viability"}]}
